Reference: patent US11802120B2, “Fused cyclic urea derivatives as CRHR2 antagonist” (RaQualia Pharma Inc., priority 2018, dated 2023)

Molecular target: T1, human CRHR2-alpha (Homo sapiens, UniProt Q13324)
T1 sequence (Q13324 1-411): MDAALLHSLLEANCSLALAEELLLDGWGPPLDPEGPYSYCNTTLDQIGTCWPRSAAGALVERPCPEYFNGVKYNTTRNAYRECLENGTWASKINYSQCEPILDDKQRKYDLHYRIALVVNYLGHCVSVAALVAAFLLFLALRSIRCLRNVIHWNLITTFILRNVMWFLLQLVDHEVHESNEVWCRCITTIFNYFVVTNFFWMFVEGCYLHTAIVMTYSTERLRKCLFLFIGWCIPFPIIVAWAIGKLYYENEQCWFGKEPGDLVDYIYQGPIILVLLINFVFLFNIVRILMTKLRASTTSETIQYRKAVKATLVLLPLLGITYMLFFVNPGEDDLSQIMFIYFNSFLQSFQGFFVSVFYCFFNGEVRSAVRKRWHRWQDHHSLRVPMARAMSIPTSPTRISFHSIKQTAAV
Test: cAMP functional assay for human CRHR2 (LANCE Ultra cAMP, TR-FRET)
Format: cell-based
Details: CHO-K1 cells expressing human CRHR2-alpha, agonist human urocortin2 at EC80, cAMP; read-out: IC50 against CRHR2
Procedure, shortened: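 Inhibition of agonist-driven cAMP was assessed in recombinant CHO-K1 cells at 25° C, using 30 min compound pretreatment and 30 min stimulation with EC80 human urocortin2 (CRHR2) or CRF (CRHR1). IC50 came from dose-response fitting.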

IC50 [nM]	SMILES
< 300	Cc1ncc(Cl)cc1C(=O)N[C@H]1CC[C@H](Cn2c(=O)n(-c3cccc(-n4ccnc4)c3)c3ccccc32)CC1 [Example 539, N-((1r,4r)-4-((3-(3-(1H-imidazol-1-yl)phenyl)-2-oxo-2,3-dihydro-1H-benzo[d]imidazol-1-yl)methyl)cyclohexyl)-5-chloro-2-methylnicotinamide]
< 300	Cc1ncc(Cl)cc1C(=O)N[C@H]1CC[C@H](Cn2c(=O)n(-c3cccc(-n4cccn4)c3)c3ccccc32)CC1 [Example 541, N-((1r,4r)-4-((3-(3-(1H-pyrazol-1-yl)phenyl)-2-oxo-2,3-dihydro-1H-benzo[d]imidazol-1-yl)methyl)cyclohexyl)-5-chloro-2-methylnicotinamide]
< 300	CNc1ncc(-n2c(=O)n(C[C@H]3CC[C@H](NC(=O)c4cc(Cl)cnc4C(F)(F)F)CC3)c3ccccc32)cc1C [Example 544, 5-chloro-N-((1r,4r)-4-((3-(5-methyl-6-(methylamino)pyridin-3-yl)-2-oxo-2,3-dihydro-1H-benzo[d]imidazol-1-yl)methyl)cyclo-hexyl)-2-(trifluoromethyl) nicotinamide]
< 300	CNC(=O)c1ccc(-n2c(=O)n(C[C@H]3CC[C@H](NC(=O)c4cc(Cl)cnc4C(F)F)CC3)c3c(F)cccc32)cn1 [Example 548, 5-(3-(((1r,4r)-4-(5-chloro-2-(difluoromethyl)nicotina-mido)cyclohexyl)methyt)-4-fluoro-2-oxo-2,3-dihydro-1H-benzo[d]imidazol-1-yl)-N-methylpicolinamide]
< 300	COC1CN(c2ccc(-n3c(=O)n(C[C@H]4CC[C@H](NC(=O)c5cc(Cl)cnc5C(F)F)CC4)c4ccccc43)cn2)C1 [Example 554, 5-chloro-2-(difluoromethyl)-N-((1r,4r)-4-((3-(6-(3-methoxyazetidin-1-yl)pyridin-3-yl)-2-oxo-2,3-dihydro-1H-benzo[d]imidazol-1-yl)methyl)cyclohexyl)nicotinamide]
< 300	CNC(=O)c1ncc(-n2c(=O)n(C[C@H]3CC[C@H](NC(=O)c4cc(Cl)cnc4C(F)F)CC3)c3ccccc32)cc1Cl [Example 555, 3-chloro-5-(3-(((1r,4r)-4-(5-chloro-2-(difluoromethyl)nicotinamido)cyclohexyl)methyl)-2-oxo-2,3-dihydro-1H-benzo[d]imidazol-1-yl)-N-methylpicolinamide]
< 300	Cc1cc(N2CCNC2=O)ncc1-n1c(=O)n(C[C@H]2CC[C@H](NC(=O)c3cc(Cl)cnc3C(F)F)CC2)c2ccccc21 [Example 558, 5-chloro-2-(difluoromethyl)-N-((1r,4r)-4-((3-(4-methyl-6-(2-oxoimidazolidin-1-yl)pyridin-3-yl)-2-oxo-2,3-dihydro-1H-benzo[d]imidazol-1-yl)methyl)cyclohexyl) nicotinamide]
< 300	CC(=O)Nc1cc(C)c(-n2c(=O)n(C[C@H]3CC[C@H](NC(=O)c4cc(Cl)cnc4C(F)F)CC3)c3ccccc32)cn1 [Example 559, N-((1r,4r)-4-((3-(6-acetamido-4-methylpyridin-3-yl)-2-oxo-2,3-dihydro-1H-benzo[d]imidazol-1-yl)methyl)cyclo-hexyl)-5-chloro-2-(difluoro-methyl)nicotinamide]

Continued, compound first:

SMILES	IC50 [nM]
CNC(=O)c1ccc(-n2c(=O)n(C[C@H]3CC[C@H](NC(=O)c4cc(Cl)ccc4OC(F)F)CC3)c3ccccc32)cn1 [Example 533, 5-(3-(((1r,4r)-4-(5-chloro-2-(difluoromethoxy)benzamido)cyclohexyl)methyl)-2-oxo-2,3-dihydro-1H-benzo[d]imidazol-1-yl)-N-methylpicolinamide]	< 300
CNC(=O)c1ccc(-n2c(=O)n(C[C@H]3CC[C@H](NC(=O)c4cc(Cl)cnc4N)CC3)c3ccccc32)cn1 [Example 534, 5-(3-(((1r,4r)-4-(2-amino-5-chloronicotinamido)cyclo-hexyl)methyl)-2-oxo-2,3-dihydro-1H-benzo[d]imidazol-1-yl)-N-methylpicolinamide]	< 300
Cc1ncc(Cl)cc1C(=O)N[C@H]1CC[C@H](Cn2c(=O)n(-c3cccc(-n4ccnn4)c3)c3ccccc32)CC1 [Example 537, N-((1r,4r)-4-((3-(3-(1H-1,2,3-triazol-1-yl)phenyl)-2-oxo-2,3-dihydro-1H-benzo[d]imidazol-1-yl)methyl)cyclohexyl)-5-chloro-2-methylnicotinamide]	< 300
CNC(=O)c1ccc(-n2c(=O)n(C[C@H]3CC[C@H](NC(=O)c4cc(Cl)cnc4Cl)CC3)c3ccccc32)cn1 [Example 542, 5-(3-(((1r,4r)-4-(2,5-dichloronicotinamido)cyclohexyl)methyl)-2-oxo-2,3-dihydro-1H-benzo[d]imidazol-1-yl)-N-methylpicolinamide]	< 300
O=C(N[C@H]1CC[C@H](Cn2c(=O)n(-c3ccc(NC4CC4)nc3)c3ccccc32)CC1)c1cc(Cl)cnc1C(F)F [Example 543, 5-chloro-N-((1r,4r)-4-((3-(6-(cyclopropylamino)pyridin-3-yl)-2-oxo-2,3-dihydro-1H-benzo[d]imidazol-1-yl)methyl)cyclohexyl)-2-(difluoro-methyl)nicotinamide]	< 300
CNc1cc(C)c(-n2c(=O)n(C[C@H]3CC[C@H](NC(=O)c4cc(Cl)cnc4C(F)(F)F)CC3)c3ccccc32)cn1 [Example 545, 5-chloro-N-((1r,4r)-4-((3-(4-methyl-6-(methylamino)pyridin-3-yl)-2-oxo-2,3-dihydro-1H-benzo[d]imidazol-1-yl)methyl)cyclohexyl)-2-(trifluoromethyl)nicotinamide]	< 300
Cn1ncc2cc(-n3c(=O)n(C[C@H]4CC[C@H](NC(=O)c5cc(Cl)cnc5C(F)F)CC4)c4cccnc43)ccc21 [Example 547, 5-chloro-2-(difluoromethyl)-N-((1r,4r)-4-((3-(1-methyl-1H-indazol-5-yl)-2-oxo-2,3-dihydro-1H-imidazo[4,5-b]pyridin-1-yl)methyl)cyclo-hexyl)nicotinamide]	< 300
O=C(NCCF)c1ccc(-n2c(=O)n(C[C@H]3CC[C@H](NC(=O)c4cc(Cl)cnc4C(F)F)CC3)c3ccccc32)cn1 [Example 549, 5-(3-(((1r,4r)-4-(5-chloro-2-(difluoromethyl)nicotina-mido)cyclohexyl)methyl)-2-oxo-2,3-dihydro-1H-benzo[d]imidazol-1-yl)-N-(2-fluoroethyl)picolinamide]	< 300
CCNC(=O)c1ccc(-n2c(=O)n(C[C@H]3CC[C@H](NC(=O)c4cc(Cl)cnc4C(F)F)CC3)c3ccccc32)cn1 [Example 551, 5-(3-(((1r,4r)-4-(5-chloro-2-(difluoromethyl)nicotina-mido)cyclohexyl)methyl)-2-oxo-2,3-dihydro-1H-benzo [d]imidazol-1-yl)-N-ethylpicolinamide]	< 300
CNc1ncc(-n2c(=O)n(C[C@H]3CC[C@H](NC(=O)c4cc(Cl)cnc4C)CC3)c3ccccc32)cc1F [Example 552, 5-chloro-N-((1r,4r)-4-((3-(5-fluoro-6-(methylamino)pyridin-3-yl)-2-oxo-2,3-dihydro-1H-benzo[d]imidazol-1-yl)methyl)cyclohexyl)-2-methylnicotinamide]	< 300
Cc1ncc(Cl)cc1C(=O)N[C@H]1CC[C@H](Cn2c(=O)n(-c3cnc(OCCO)c(F)c3)c3ccccc32)CC1 [Example 553, 5-chloro-N-((1r,4r)-4-((3-(5-fluoro-6-(2-hydroxyethoxy)pyridin-3-yl)-2-oxo-2,3-dihydro-1H-benzo[d]imidazol-1-yl)methyl)cyclohexyl)-2-methylnicotinamide]	< 300
CNC(=O)c1ccc(-n2c(=O)n(C[C@H]3CC[C@H](NC(=O)c4cc(Cl)cnc4C(F)F)CC3)c3ccccc32)c(C)n1 [Example 556, 5-(3-(((1r,4r)-4-(5-chloro-2-(difluoromethyl)nicotina-mido)cyclohexyl)methyl)-2-oxo-2,3-dihydro-1H-benzo[d]imidazol-1-yl)-N,6-dimethylpicolinamide]	< 300
CNC(=O)c1ccc(-n2c(=O)n(C[C@H]3CC[C@H](NC(=O)c4c5ccccc5nn4CC(F)(F)F)CC3)c3ccccc32)cn1 [Example 557, N-((1r,4r)-4-((3-(6-(methylcarbamoyl)pyridin-3-yl)-2-oxo-2,3-dihydro-1H-benzo[d]imidazol-1-yl)methyl)cyclohexyl)-2-(2,2,2-trifluoroethyl)-2H-indazole-3-carboxamide]	< 300
CCC(=O)Nc1cc(C)c(-n2c(=O)n(C[C@H]3CC[C@H](NC(=O)c4cc(Cl)cnc4C(F)F)CC3)c3ccccc32)cn1 [Example 560, 5-chloro-2-(difluoromethyl)-N-((1r,4r)-4-((3-(4-methyl-6-propionamidopyridin-3-yl)-2-oxo-2,3-dihydro-1H-benzo [d]imidazol-1-yl)methyl)cyclo-hexyl)nicotinamide]	< 300
Cc1cc(N2CCCC2=O)ncc1-n1c(=O)n(C[C@H]2CC[C@H](NC(=O)c3cc(Cl)cnc3C(F)F)CC2)c2ccccc21 [Example 561, 5-chloro-2-(difluoromethyl)-N-((1r,4r)-4-((3-(4-methyl-6-(2-oxopyrrolidin-1-yl)pyridin-3-yl)-2-oxo-2,3-dihydro-1H-benzo[d]imidazol-1-yl)methyl)cyclohexyl) nicotinamide]	< 300
